Reference: ChEMBL document CHEMBL1201862, “PubChem BioAssay data set” (2004)
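Values below derive from 48-hour exposures of cells grown in 96-well plates, with endpoints linearly interpolated between the two concentrations bracketing the appropriate inhibition level. GI50 marks 50% less growth.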 Calls of active or inactive are those of the source. Rule as the data show it: active = GI50 up to about 1.1 µM and inactive = higher.

Columns and labels:
Assay in all cases: NCI-60 cell line screen, 48 h
RXF 393 = system: RXF 393
HCT-116 = system: HCT-116
PC-3 = system: PC-3
CAKI-1 = system: CAKI-1
NCI/ADR-RES = system: NCI/ADR-RES
SN12C = system: SN12C
TK-10 = system: TK-10
786-0 = system: 786-0
OVCAR-5 = system: OVCAR-5
SF-268 = system: SF-268
ACHN = system: ACHN
MCF7 = system: MCF7
MDA-N = system: MDA-N
SR = system: SR
NCI-H23 = system: NCI-H23
OVCAR-3 = system: OVCAR-3
MDA-MB-435 = system: MDA-MB-435
T47D = system: T47D
Hs-578T = system: Hs-578T
K562 = system: K562
DU-145 = system: DU-145
RPMI-8226 = system: RPMI-8226
LOX IMVI = system: LOX IMVI
UACC-257 = system: UACC-257
SK-MEL-5 = system: SK-MEL-5
NCI-H522 = system: NCI-H522
CCRF-CEM = system: CCRF-CEM
HCC 2998 = system: HCC 2998
SW-620 = system: SW-620
SNB-19 = system: SNB-19
SF-295 = system: SF-295
NCI-H226 = system: NCI-H226
MOLT-4 = system: MOLT-4
HT-29 = system: HT-29
SF-539 = system: SF-539
SNB-75 = system: SNB-75
COLO 205 = system: COLO 205
KM12 = system: KM12
OVCAR-4 = system: OVCAR-4
Malme-3M = system: Malme-3M
UACC-62 = system: UACC-62
MDA-MB-231 = system: MDA-MB-231
SK-OV-3 = system: SK-OV-3
IGROV-1 = system: IGROV-1
HL-60 = system: HL-60
OVCAR-8 = system: OVCAR-8
HOP-62 = system: HOP-62
NCI-H460 = system: NCI-H460
EKVX = system: EKVX
A549 = system: A549
HOP-92 = system: HOP-92
SK-MEL-28 = system: SK-MEL-28
UO-31 = system: UO-31
M14 = system: M14
A498 = system: A498
HCT-15 = system: HCT-15
U-251 = system: U-251
SK-MEL-2 = system: SK-MEL-2

With `C/C(=C\CNc1ncnc2c1ncn2CCC#N)CO` the GI50 (RXF 393) was > 100 µM (inactive), the GI50 (HCT-116) was > 100 µM (inactive) and the GI50 (PC-3) was > 100 µM (inactive). The GI50 (CAKI-1) was > 100 µM (inactive), the GI50 (NCI/ADR-RES) was > 100 µM (inactive) and the GI50 (SN12C) was > 100 µM (inactive). For the same compound, the GI50 (TK-10) was > 100 µM (inactive), the GI50 (786-0) was > 100 µM (inactive) and the GI50 (OVCAR-5) was > 100 µM (inactive). The GI50 (SF-268) was > 100 µM (inactive), the GI50 (ACHN) was > 100 µM (inactive) and the GI50 (MCF7) was > 100 µM (inactive). The GI50 (MDA-N) was > 100 µM (inactive), the GI50 (SR) was > 100 µM (inactive) and the GI50 (NCI-H23) was > 100 µM (inactive). For the same compound, the GI50 (OVCAR-3) was > 100 µM (inactive), the GI50 (MDA-MB-435) was > 100 µM (inactive) and the GI50 (T47D) was > 100 µM (inactive). The GI50 (Hs-578T) was > 100 µM (inactive), the GI50 (K562) was > 100 µM (inactive) and the GI50 (DU-145) was > 100 µM (inactive). For the same compound, the GI50 (RPMI-8226) was > 100 µM (inactive), the GI50 (LOX IMVI) was > 100 µM (inactive) and the GI50 (UACC-257) was > 100 µM (inactive). The GI50 (SK-MEL-5) was > 100 µM (inactive), the GI50 (NCI-H522) was > 100 µM (inactive) and the GI50 (CCRF-CEM) was > 100 µM (inactive). For the same compound, the GI50 (HCC 2998) was > 100 µM (inactive), the GI50 (SW-620) was > 100 µM (inactive) and the GI50 (SNB-19) was > 100 µM (inactive). The GI50 (SF-295) was > 100 µM (inactive), the GI50 (NCI-H226) was > 100 µM (inactive) and the GI50 (MOLT-4) was > 100 µM (inactive). For the same compound, the GI50 (HT-29) was > 100 µM (inactive), the GI50 (SF-539) was > 100 µM (inactive) and the GI50 (SNB-75) was > 100 µM (inactive). The GI50 (COLO 205) was > 100 µM (inactive), the GI50 (KM12) was > 100 µM (inactive) and the GI50 (OVCAR-4) was > 100 µM (inactive). The GI50 (Malme-3M) was > 100 µM (inactive), the GI50 (UACC-62) was > 100 µM (inactive) and the GI50 (MDA-MB-231) was > 100 µM (inactive). The GI50 (SK-OV-3) was > 100 µM (inactive), the GI50 (IGROV-1) was > 100 µM (inactive) and the GI50 (HL-60) was > 100 µM (inactive). The GI50 (OVCAR-8) was > 100 µM (inactive), the GI50 (HOP-62) was > 100 µM (inactive) and the GI50 (NCI-H460) was > 100 µM (inactive). The GI50 (EKVX) was > 100 µM (inactive), the GI50 (A549) was > 100 µM (inactive) and the GI50 (HOP-92) was > 100 µM (inactive). The GI50 (SK-MEL-28) was > 100 µM (inactive), the GI50 (UO-31) was > 100 µM (inactive) and the GI50 (M14) was > 100 µM (inactive).

In the case of `CCOC(=O)C1(CO)CSCCSC1`, the GI50 (RXF 393) is reported as > 100 µM (inactive), the GI50 (HCT-116) is reported as > 100 µM (inactive) and the GI50 (PC-3) is reported as > 100 µM (inactive). The GI50 (NCI/ADR-RES) was > 100 µM (inactive), the GI50 (SN12C) was > 100 µM (inactive) and the GI50 (TK-10) was > 100 µM (inactive). For the same compound, the GI50 (SF-268) was > 100 µM (inactive), the GI50 (ACHN) was > 100 µM (inactive) and the GI50 (MCF7) was > 100 µM (inactive). The GI50 (MDA-N) was > 100 µM (inactive), the GI50 (A498) was > 100 µM (inactive) and the GI50 (SR) was > 100 µM (inactive). For the same compound, the GI50 (NCI-H23) was > 100 µM (inactive), the GI50 (MDA-MB-435) was > 100 µM (inactive) and the GI50 (Hs-578T) was > 100 µM (inactive). The GI50 (K562) was > 100 µM (inactive), the GI50 (DU-145) was > 100 µM (inactive) and the GI50 (LOX IMVI) was > 100 µM (inactive). The GI50 (HCT-15) was greater than 100 µM, the GI50 (UACC-257) was > 100 µM (inactive) and the GI50 (SK-MEL-5) was > 100 µM (inactive). For the same compound, the GI50 (NCI-H522) was > 100 µM (inactive), the GI50 (CCRF-CEM) was > 100 µM (inactive) and the GI50 (HCC 2998) was > 100 µM (inactive). The GI50 (SW-620) was > 100 µM (inactive), the GI50 (SNB-19) was > 100 µM (inactive) and the GI50 (SF-295) was > 100 µM (inactive). The GI50 (NCI-H226) was > 100 µM (inactive), the GI50 (MOLT-4) was > 100 µM (inactive) and the GI50 (HT-29) was > 100 µM (inactive). For the same compound, the GI50 (SNB-75) was > 100 µM (inactive), the GI50 (COLO 205) was > 100 µM (inactive) and the GI50 (KM12) was > 100 µM (inactive). For the same compound, the GI50 (MDA-MB-231) was > 100 µM (inactive), the GI50 (U-251) was > 100 µM (inactive) and the GI50 (SK-OV-3) was > 100 µM (inactive). The GI50 (OVCAR-8) was > 100 µM (inactive), the GI50 (NCI-H460) was > 100 µM (inactive) and the GI50 (A549) was > 100 µM (inactive). For the same compound, the GI50 (HOP-92) was > 100 µM (inactive), the GI50 (SK-MEL-28) was > 100 µM (inactive) and the GI50 (UO-31) was > 100 µM (inactive).

In the case of `CO/N=C(/C)c1cccc(Nc2nc3ccc(Cl)cc3c3[nH]c4ccccc4c23)c1`, the GI50 (RXF 393) is reported as 1.52 µM (inactive), the GI50 (HCT-116) is reported as 4.21 µM (inactive) and the GI50 (PC-3) is reported as 14 µM (inactive). The GI50 (CAKI-1) was 10.4 µM (inactive), the GI50 (NCI/ADR-RES) was 14.3 µM (inactive) and the GI50 (SN12C) was 11 µM (inactive). For the same compound, the GI50 (786-0) was 6.79 µM (inactive), the GI50 (OVCAR-5) was 7.31 µM (inactive) and the GI50 (SF-268) was 13 µM (inactive). For the same compound, the GI50 (ACHN) was 3.74 µM (inactive), the GI50 (MCF7) was 10.3 µM (inactive) and the GI50 (MDA-N) was 11.8 µM (inactive). For the same compound, the GI50 (A498) was 4.29 µM (inactive), the GI50 (SR) was 4.72 µM (inactive) and the GI50 (NCI-H23) was 11.5 µM (inactive). For the same compound, the GI50 (SK-MEL-2) was 13.2 µM (inactive), the GI50 (OVCAR-3) was 4.62 µM (inactive) and the GI50 (MDA-MB-435) was 8.57 µM (inactive). For the same compound, the GI50 (T47D) was 2.47 µM (inactive), the GI50 (Hs-578T) was 16.7 µM (inactive) and the GI50 (K562) was 3.13 µM (inactive). The GI50 (DU-145) was 12.2 µM (inactive), the GI50 (RPMI-8226) was 3.2 µM (inactive) and the GI50 (LOX IMVI) was 11.2 µM (inactive). The GI50 (HCT-15) was 9.73 µM, the GI50 (UACC-257) was 14.5 µM (inactive) and the GI50 (SK-MEL-5) was 3.2 µM (inactive). The GI50 (NCI-H522) was 4.75 µM (inactive), the GI50 (CCRF-CEM) was 23 µM (inactive) and the GI50 (SW-620) was 6.08 µM (inactive). The GI50 (SNB-19) was 15 µM (inactive), the GI50 (SF-295) was 4.08 µM (inactive) and the GI50 (NCI-H226) was 12.5 µM (inactive). For the same compound, the GI50 (MOLT-4) was 5.13 µM (inactive), the GI50 (SF-539) was 15.6 µM (inactive) and the GI50 (COLO 205) was 5.87 µM (inactive). For the same compound, the GI50 (KM12) was 3.97 µM (inactive), the GI50 (UACC-62) was 6.59 µM (inactive) and the GI50 (MDA-MB-231) was 13.4 µM (inactive). For the same compound, the GI50 (U-251) was 13.6 µM (inactive), the GI50 (SK-OV-3) was 21.8 µM (inactive) and the GI50 (IGROV-1) was 10.6 µM (inactive). The GI50 (HL-60) was 13.2 µM (inactive), the GI50 (OVCAR-8) was 8 µM (inactive) and the GI50 (HOP-62) was 11.7 µM (inactive). The GI50 (NCI-H460) was 4.31 µM (inactive), the GI50 (A549) was 12.8 µM (inactive) and the GI50 (HOP-92) was 3.65 µM (inactive). The GI50 (UO-31) was 9.46 µM (inactive) and the GI50 (M14) was 6.92 µM (inactive).
